Experimental data as given in publication PMC10552471 (ACS Omega, 2023).
Structures can show the parent of a compound that is named as a salt.

Experiments:
Type in all cases: biochemical
[1] = biological target: T1, Plasmodium falciparum serine hydroxymethyltransferase (PfSHMT) (Plasmodium falciparum, UniProt Q8I566); assay: MTHFD-coupled enzyme assay at a single concentration; conditions: read-out: % inhibition at 100 μM
T1 sequence (Q8I566 1-442): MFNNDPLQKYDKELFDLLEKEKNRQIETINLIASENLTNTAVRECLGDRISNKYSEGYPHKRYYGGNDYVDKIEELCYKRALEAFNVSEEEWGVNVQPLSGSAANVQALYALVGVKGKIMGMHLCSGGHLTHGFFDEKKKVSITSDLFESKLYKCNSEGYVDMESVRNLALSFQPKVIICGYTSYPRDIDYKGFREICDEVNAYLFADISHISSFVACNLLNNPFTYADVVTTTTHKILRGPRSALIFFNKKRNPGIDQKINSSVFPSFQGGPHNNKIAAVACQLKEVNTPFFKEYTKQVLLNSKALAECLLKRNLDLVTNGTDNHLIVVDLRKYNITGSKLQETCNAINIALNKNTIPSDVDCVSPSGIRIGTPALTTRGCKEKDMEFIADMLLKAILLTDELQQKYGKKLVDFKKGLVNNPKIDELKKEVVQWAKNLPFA

[2] = biological target: T1, Plasmodium falciparum serine hydroxymethyltransferase (PfSHMT); assay: MTHFD-coupled enzyme assay, […], […] to […] h incubation; conditions: read-out: % inhibition at 100 μM
[3] = biological target: T1, Plasmodium falciparum serine hydroxymethyltransferase (PfSHMT)

Structure (SMILES) | inhibition at 100 µM [1] [%] | also measured
CC(C)[C@@]1(NC(=O)[C@@H]2C[C@@H]3c4cccc5[nH]cc(c45)C[C@H]3N(C)C2)O[C@@]2(O)[C@@H]3CCCN3C(=O)[C@H](Cc3ccccc3)N2C1=O [dihydroergocristine mesylate] | 20 to 50 | –
CO[C@H]1/C=C/O[C@@]2(C)Oc3c(C)c(O)c4c(O)c(c5c(nc6cc(C)ccn65)c4c3C2=O)NC(=O)/C(C)=C\C=C\[C@H](C)[C@H](O)[C@@H](C)[C@@H](O)[C@@H](C)[C@H](OC(C)=O)[C@@H]1C [rifaximin] | – | inhibition at 100 µM [2]: ~60%
CO[C@H]1/C=C/O[C@@]2(C)Oc3c(C)c(O)c4c(c3C2=O)C2=NC3(CCN(CC(C)C)CC3)NC2=C(NC(=O)/C(C)=C\C=C\[C@H](C)[C@H](O)[C@@H](C)[C@@H](O)[C@@H](C)[C@H](OC(C)=O)[C@@H]1C)C4=O [rifabutin] | 20 to 50 | –
C[C@@H]1[C@H](O)[C@@H](C)/C=C/C=C/C=C/C=C/C=C/C=C/C=C/[C@H](O[C@@H]2O[C@H](C)[C@@H](O)[C@H](N)[C@@H]2O)C[C@@H]2O[C@](O)(C[C@@H](O)C[C@@H](O)[C@H](O)CC[C@@H](O)C[C@@H](O)CC(=O)O[C@H]1C)C[C@H](O)[C@H]2C(=O)O [amphotericin B] | – | IC50 [3]: 106 ± 1 µM
